In patent publication US20220105150A1, “AMPHIPATHIC ALPHA-HELICAL ANTIMICROBIAL PEPTIDES TREAT INFECTIONS BY GRAM-NEGATIVE PATHOGENS” (priority 2019, published 2022):

How the values were obtained:
[1] = Peptide self-association by temperature profiling in RP-HPLC; format: physicochemical; conditions: for PA: self-association parameter relative to random coil control peptide RC; for Tp: temperature at which maximum retention time is observed, 5-77° C.
Experimental: Retention behavior from eight AMPs after normalization to their retention times at 5° C. over the temperature range 5° C. to 41° C. in 2° C. increments or 5° C. to 75° C. in 10° C. increments (methodology details provided in Examples). […] Peptide denotions in FIG. 5 have been abbreviated from those shown in Table 1G; for example, D87(Lys1-6 Arg-1) has been shortened to D87(6 Arg-1). RC is a random coil control peptide used for RP-HPLC temperature profiling. The peptide self-association parameter, PA, represents the maximum change in peptide retention time relative to the random coil peptide, RC (PA values shown in Table 6). […] T., et al. J. Med. Chem. 2019, 62:3354-66.
Hemoglobin release was determined spectrophotometrically at 570 nm.
Peptide self-association, the ability to dimerize/oligomerize in aqueous solution, is a very important parameter to optimize antimicrobial activity and toxicity as measured by hemolytic activity. We have proposed that the monomeric random-coil antimicrobial peptides in aqueous solution are best suited to pass through a polysaccharide capsule, the outer membrane lipopolysaccharide and the cell wall peptidoglycan layer of Gram-negative bacteria prior to penetration into the cytoplasmic membrane, where there is induction of α-helical structure and disruption of membrane structure, cell leakage and death of bacterial cells. In contrast, if the self-association ability of an AMP in aqueous medium is too strong, stable folded dimers/oligomers are formed through interaction of their non-polar faces which decreases the ability of the AMP to dissociate to monomer and the dimer/oligomer to effectively pass through the capsule and cell wall to reach the cytoplasmic membrane. The ability of an AMP to self-associate was determined by a RP-HPLC technique developed in our laboratory, referred to as temperature profiling over the temperature range 5° C. to 80° C. […] These eight AMPs are compared to a random-coil control peptide denoted RC. […] This linear decrease in retention behavior with increasing temperature represents the general effects of temperature due to greater solute diffusivity and enhanced mass transfer between the mobile and stationary phases. The difference in retention time between an amphipathic α-helical antimicrobial peptide and the RC control peptide is a measure of the ability of a peptide to associate. The association parameter, PA is large for AMPs without specificity determinants (Ala 13 and Ala 16) ranging from 12.5 to 28.0 min (Table 6) and is shown by a black arrow in FIG. 5. The association parameter, PA, is dramatically smaller for AMPs with specificity determinants (Lys 13 and Lys 16 in the center of the non-polar face) and range from 0 to 6 min (Table 6). […]

[2] = Peptide hydrophobicity by RP-HPLC retention time; format: physicochemical; conditions: RP-HPLC retention time at pH 2, 25° C.
Experimental: Column: Zorbax 300 SB-C8, 150×2.1 mm ID, 5-μm particle size, 300-Å pore size; conditions, linear AB gradient (0.25% acetonitrile/min) at a flow-rate of 0.3 ml/min, where eluent A was 20 mM aq. TFA and eluent B was 20 mM TFA in acetonitrile and the temperature was 25° C. The sequences of the ten peptides (with seven peptides containing Lys specificity determinants at positions 13 and 16 of the non-polar face (see FIG. 1) are shown in Table 1G. Peptide denotions in FIG. 4 have been abbreviated from those shown in Table 1G; for example, D87(Lys1-6 Arg-1) has been shortened to D87(6 Arg-1). For the peptides without specificity determinants, we have added A13/A16 to the peptide denotions. It is interesting that the Dab containing peptides are more hydrophilic than the Dap containing peptides even thought the Dab containing peptides have an additional carbon atom per Dab residue.
Retention behavior in reversed-phase chromatography is an excellent method to represent overall peptide hydrophobicity. […] All ten peptides used in this study could be readily separated by reversed-phase chromatography with the seven peptides with specificity determinants being much more hydrophilic than the three control peptides without specificity determinants (FIG. 4). […]

| SMILES | PA [1] [min] | Tp [1] [°C] | Hydrophobicity pH 2 tR [2] [min] |
| --- | --- | --- | --- |
| CC(=O)N[C@H](CCCCN)C(=O)N[C@H](CC(C)C)C(=O)N[C@H](CCN)C(=O)N[C@H](CO)C(=O)N[C@H](CC(C)C)C(=O)N[C@H](CC(C)C)C(=O)N[C@H](CCN)C(=O)N[C@@H](C(=O)N[C@H](CC(C)C)C(=O)N[C@H](CO)C(=O)N[C@H](CCN)C(=O)N[C@H](C)C(=O)N[C@H](C)C(=O)N[C@H](C)C(=O)N[C@H](C)C(=O)N[C@H](C)C(=O)N[C@H](CC(C)C)C(=O)N[C@H](CCN)C(=O)N[C@@H](C(=O)N[C@H](CC(C)C)C(=O)N[C@H](CC(C)C)C(=O)N[C@H](CCN)C(=O)N[C@H](C)C(=O)N[C@H](CC(C)C)C(=O)N[C@H](CO)C(=O)N[C@H](CCN)C(N)=O)[C@H](C)O)[C@H](C)O [D86(K13A/K16A)-(Lys^1-6Dab-1), Ac-KL(Dab)SLL(Dab)TLS(Dab)AAAAAL(Dab)TLL(Dab)ALS(Dab)-amide] | 12.5 | 31.0 | 158.3 |
| CC(=O)N[C@H](CCCCN)C(=O)N[C@H](CC(C)C)C(=O)N[C@H](CN)C(=O)N[C@H](CO)C(=O)N[C@H](CC(C)C)C(=O)N[C@H](CC(C)C)C(=O)N[C@H](CN)C(=O)N[C@@H](C(=O)N[C@H](CC(C)C)C(=O)N[C@H](CO)C(=O)N[C@H](CN)C(=O)N[C@H](C)C(=O)N[C@H](C)C(=O)N[C@H](C)C(=O)N[C@H](C)C(=O)N[C@H](C)C(=O)N[C@H](CC(C)C)C(=O)N[C@H](CN)C(=O)N[C@@H](C(=O)N[C@H](CC(C)C)C(=O)N[C@H](CC(C)C)C(=O)N[C@H](CN)C(=O)N[C@H](C)C(=O)N[C@H](CC(C)C)C(=O)N[C@H](CO)C(=O)N[C@H](CN)C(N)=O)[C@H](C)O)[C@H](C)O [D105(K13A/K16A)-(Lys^1-6Dap-1), Ac-KL(Dap)SLL(Dap)TLS(Dap)AAAAAL(Dap)TLL(Dap)ALS(Dap)-amide] | 18.0 | 39.0 | 172.3 |
